Experimental data taken from US5260309A, “4,5,6,11-tetrahydrobenzo [6,7] cycloocta [1,2-b]thiophen-6,11-imines and 6,11-dihydrobenzo [6,7] cycloocta [1,2-b] thiophen-6,11-imines” (Pfizer Inc., priority 1992, dated 1993).

Tested on: P2 membranes from rat forebrain (3H-TCP binding)
Experiment: 3H-TCP binding assay (displacement of 3H-TCP from P2 membranes from rat forebrain)
Conditions: activity ratio (+)-enantiomer vs (-)-enantiomer
Method: P2 membranes from rat forebrain were suspended in 5 mM tris(hydroxymethyl)aminomethane hydrochloride buffer (pH 7.4). A solution of the test compound in H2 O or DMSO/H2 O was added followed by a solution of ^3 H-TCP The mixture was incubated for 20 minutes at 30° C. and then injected onto a glass fiber filter. The filters were washed with cold buffer and placed in vials for subsequent liquid scintillation spectrometry. IC50 were calculated from the amount of tritium label retained on the filters.

Question: With `CC12NC(CCc3ccsc31)c1ccccc12` (single isomer, unassigned; (+)) [(+)-enantiomer, (+)-11-methyl-4,5,6,11-tetrahydrobenzo[6,7]cycloocta[1,2-b]-thiophen-6,11-imine] as the molecule, how does the “times as active as the (-)-enantiomer in the 3H-TCP binding assay” value read?
Answer: approximately eight

Same assay, conditions: rat forebrain P2 membranes, pH 7.4, 20 minutes at 30° C.; upper bound stated for the group in micromolar

Question: For `CC12NC(CCc3cc(Br)sc31)c1ccccc12` (stereo not drawn) [15 (free amine), 2-bromo-11-methyl-4,5,6,11-tetrahydrobenzo[6,7]cycloocta[1,2-b]thiophen-6,11-imine], which IC50 is on record?
Answer: ≤ 2 µM

Question: With `c1ccc2c(c1)C1CCc3ccsc3C2N1` (stereo not drawn) [Example 4, 4,5,6,11-Tetrahydrobenzo[6,7]cycloocta[1,2-b]thiophen-6,11-imine] as the molecule, how does the IC50 read?
Answer: ≤ 2 µM

Question: How did the IC50 turn out when `CSc1cc2c(s1)C1(C)NC(CC2)c2ccccc21` (stereo not drawn) [Example 14, 2-Methylthio-11-methyl-4,5,6,11-tetrahydrobenzo[6,7]-cycloocta[1,2-b]thiophen-6,11-imine] was run?
Answer: ≤ 2 µM

Question: Which IC50 does the source give for `CC12NC(CCc3cc(Cl)sc31)c1ccccc12` (stereo not drawn) [Example 16, 2-Chloro-11-methyl-4,5,6,11-tetrahydrobenzo[6,7]-cycloocta[1,2-b]thiophen-6,11-imine] here?
Answer: ≤ 2 µM

Question: `CC12NC(C=Cc3ccsc31)c1ccccc12` (stereo not drawn) [Example 18, 11-Methyl-6,11-dihydrobenzo[6,7]cycloocta[1,2-b]thiophen-6,11-imine] was tested. Which IC50 did it give?
Answer: ≤ 2 µM

Same assay, conditions: rat forebrain P2 membranes, pH 7.4, 20 minutes at 30° C.; upper bound stated for the group in nanomolar

Question: How did the IC50 turn out when `CC12NC(CCc3ccsc31)c1ccccc12` (stereo not drawn) [Example 9, 11-Methyl-4,5,6,11-tetrahydrobenzo[6,7]cycloocta-[1,2-b]thiophen-6,11-imine] was run?
Answer: ≤ 0.04 µM

Question: With `CC12NC(CCc3ccsc31)c1cc(F)ccc12` (stereo not drawn) [Example 22, 8-Fluoro-11-methyl-4,5,6,11-tetrahydrobenzo[6,7]-cycloocta[1,2-b]thiophen-6,11-imine] as the molecule, how does the IC50 read?
Answer: ≤ 0.04 µM

Question: `Cc1ccc2c(c1)C1CCc3ccsc3C2(C)N1` (stereo not drawn) [Example 26, 8.11-Dimethyl-4,5,6,11-tetrahydrobenzo[6,7]cycloocta-[1,2-b]thiophen-6,11-imine] was tested. Which IC50 did it give?
Answer: ≤ 0.04 µM
